Reference: patent US20040198609A1, “4-alkyl-substituted thienyloxy-pyridines” (priority 2001, published 2004)

Columns and labels:
Experiment in all cases: greenhouse post-emergence herbicidal test
Format in all cases: in vivo
Conditions in all cases: application rates of 0.25 or 0.125 kg/ha
[1] = test system: Pharbitis purpurea
From the text: (§1) The seeds of the test plants were sown separately for each species. For the post-emergence treatment, the test plants were first grown to a height of from 3 to 15 cm, depending on the plant habit, and only then treated with the active compounds which had been suspended or emulsified in water. The test plants were for this purpose either sown directly and grown in the same containers, or they were first grown separately as seedlings and transplanted into the test containers a few days prior to treatment. The application rate for the post-emergence treatment was 0.25 or 0.125 kg of a.s. (active substance)/ha. Depending on the species, the plants were kept at 10-25° C. or 20-35° C. The test period extended over 2 to 4 weeks. During this time, the plants were tended, and their response to the individual treatments was evaluated. Evaluation was carried out using a scale from 0 to 100. 100 means no emergence of the plants, or complete destruction of at least the above-ground parts, and 0 means no damage, or normal course of growth. The plants used in the greenhouse experiments were of the following species: [table]

[2] = test system: Amaranthus retroflexus
From the text: as §1

[3] = test system: Galium aparine
From the text: as §1

[4] = test system: Chenopodium album
From the text: as §1

Measured: post-emergence action

Cc1c(F)c(Oc2csc(C(F)(F)F)c2)nc(-n2ccc(C(F)(F)F)n2)c1F [compound 3.1, 3,5-Difluoro-4-methyl-2-(3-trifluoromethyl-1H-pyrazol-1-yl)-6-(5-trifluoromethyl-3-thienyloxy)pyridine]
very good: all assays above
